Experimental data published in patent US11633393B2, “Tubulin binding compounds and therapeutic use thereof” (BeyondSpring Pharmaceuticals, Inc., priority 2017, dated 2023).

Tested on: bovine brain tubulin
Assay: Microtubule pelleting assay
Format: biochemical
Conditions: 100 μM compound, microtubules 2 mg/mL, 30 min at 37° C.
Description: A microtubule pelleting assay is used to test in vitro the direct effect of the tubulin binding compounds described herein such as the compounds listed in Tables 1, 2, and 3. […] Freshly polymerised/depolymerised bovine brain tubulin is supplemented with 34% Glycerol and 1 mM GTP and adjusted to a concentration of 4 mg/mL. Polymerization into microtubule is achieved by incubating the tubulin at 37° C. for 30 min.
To assess the effect of the compounds tested, a final concentration of 100 μM is added to the warm microtubules diluted at 2 mg/mL and after a 30 min incubation at 37° C., the reaction mixture is added on top of a glycerol cushion. After high speed centrifugation at 80,000 rpm for 15 min, the microtubule pellet fractions are separated from the supernatant fractions and analyzed by SDS-PAGE. In the presence of the 3 MDAs, the tubulin band is observed in the pellet fractions, which indicates the […] effect of these compounds. […] The test compounds generally show destabilizing effect on microtubules.

CC(=O)O[C@H]1C(=O)[C@@]2(C)[C@H]([C@H](OC(=O)c3ccccc3)[C@]3(O)C[C@H](OC(=O)[C@H](O)[C@@H](NC(=O)c4ccccc4)c4ccccc4)C(C)=C1C3(C)C)[C@]1(OC(C)=O)CO[C@@H]1C[C@@H]2O [taxol] was tested. Which “effect on microtubules (tubulin in pellet vs supernatant fractions, SDS-PAGE)” value did it give?
The value was “increases the amount of tubulin observed in the pellet fraction”.
